Source: PubChem BioAssay AID248 (DTP/NCI, 2004)
“And” between values parts separate entries of the source, which are not always exact repeats. Equal values may be shown once. Inconclusive results and toxic doses are left out. No stated cut-off is given here; in the data, active means T/C of 150% or more; inactive means T/C below 125%.

System: L1210 leukemia ip in BDF1 mice, survival T/C
Test: NCI In Vivo Anticancer Drug Screen. Data for tumor model L1210 Leukemia (intraperitoneal) in B6D2F1 (BDF1) mice
Details: endpoint: mean survival time, higher = longer survival
Procedure, shortened: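 Survival endpoint. Drug-treated group vs vehicle group, expressed as T divided by C. Tumor passaged by transplantation.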

[1] = dose: 50.0 mg/kg/injection, schedule: Q01DX009 (ip), vehicle: saline
[2] = dose: 100.0 mg/kg/injection, schedule: Q01DX009 (ip), vehicle: saline
[3] = dose: 200.0 mg/kg/injection, schedule: Q01DX009 (ip), vehicle: saline
[4] = dose: 100.0 mg/kg/injection, schedule: Q04DX002 (ip), vehicle: saline with Tween-80
[5] = dose: 200.0 mg/kg/injection, schedule: Q04DX002 (ip), vehicle: saline with Tween-80

Measured: T/C

Cc1c(F)cccc1C(=O)O
inactive: dose: 100.0 mg/kg/injection, schedule: Q01DX009 (ip), vehicle: carboxymethylcellulose (CMC) 101 % of control and 102 % of control | dose: 100.0 mg/kg/injection, schedule: Q04DX002 (ip), vehicle: carboxymethylcellulose (CMC) 100 % of control | dose: 100.0 mg/kg/injection, schedule: Q04DX003 (ip), vehicle: carboxymethylcellulose (CMC) 103 % of control | dose: 200.0 mg/kg/injection, schedule: Q01DX009 (ip), vehicle: carboxymethylcellulose (CMC) 102 % of control and 87 % of control | dose: 200.0 mg/kg/injection, schedule: Q04DX002 (ip), vehicle: carboxymethylcellulose (CMC) 93 % of control and 105 % of control | dose: 200.0 mg/kg/injection, schedule: Q04DX003 (ip), vehicle: carboxymethylcellulose (CMC) 103 % of control | dose: 400.0 mg/kg/injection, schedule: Q01DX009 (ip), vehicle: carboxymethylcellulose (CMC) 97 % of control and 90 % of control | dose: 400.0 mg/kg/injection, schedule: Q04DX002 (ip), vehicle: carboxymethylcellulose (CMC) 93 % of control and 102 % of control | dose: 400.0 mg/kg/injection, schedule: Q04DX003 (ip), vehicle: carboxymethylcellulose (CMC) 101 % of control

CCC1C(=O)CCN(C)C1c1cc2ccccc2[nH]1 (configuration not stated)
inactive: dose: 100.0 mg/kg/injection, schedule: Q01DX001 (ip), vehicle: carboxymethylcellulose (CMC) 105 % of control | dose: 200.0 mg/kg/injection, schedule: Q01DX001 (ip), vehicle: carboxymethylcellulose (CMC) 91 % of control

CCNC(c1ccccc1)C(O)c1ccccc1 (configuration not stated)
inactive: dose: 50.0 mg/kg/injection, schedule: Q04DX002 (ip), vehicle: Klucel (hydroxypropylcellulose) (HPC) 94 % of control | dose: 100.0 mg/kg/injection, schedule: Q01DX009 (ip), vehicle: Klucel (hydroxypropylcellulose) (HPC) 104 % of control | dose: 100.0 mg/kg/injection, schedule: Q04DX002 (ip), vehicle: Klucel (hydroxypropylcellulose) (HPC) 105 % of control | dose: 200.0 mg/kg/injection, schedule: Q01DX009 (ip), vehicle: Klucel (hydroxypropylcellulose) (HPC) 102 % of control

ClC(CN1CCCCC1)C(Cl)c1ccccc1 (configuration not stated)
inactive: [1] 90 % of control | dose: 50.0 mg/kg/injection, schedule: Q04DX003 (ip), vehicle: saline sonified 96 % of control | [2] 91 % of control | dose: 100.0 mg/kg/injection, schedule: Q04DX003 (ip), vehicle: saline sonified 91 % of control | dose: 200.0 mg/kg/injection, schedule: Q04DX003 (ip), vehicle: saline sonified 101 % of control

O=C(O)C1C2C=CCC1CC2 (configuration not stated)
inactive: dose: 100.0 mg/kg/injection, schedule: Q04DX003 (ip), vehicle: alcohol 100 % of control | dose: 200.0 mg/kg/injection, schedule: Q04DX003 (ip), vehicle: alcohol 103 % of control | dose: 400.0 mg/kg/injection, schedule: Q04DX003 (ip), vehicle: alcohol 100 % of control

Cc1cc(Cl)ccc1NC(=O)Nc1c(Oc2ccc(Cl)cc2)ccc(Cl)c1S(=O)(=O)O
inactive: [1] 104 % of control | dose: 50.0 mg/kg/injection, schedule: Q04DX003 (ip), vehicle: saline 95 % of control | [2] 104 % of control | dose: 100.0 mg/kg/injection, schedule: Q04DX003 (ip), vehicle: saline 97 % of control | [3] 100 % of control | dose: 200.0 mg/kg/injection, schedule: Q04DX003 (ip), vehicle: saline 103 % of control

Nc1ccc(CCC(=O)NC(CCC(=O)O)C(=O)O)cc1 (configuration not stated)
inactive: [2] 102 % of control | dose: 100.0 mg/kg/injection, schedule: Q04DX002 (ip), vehicle: saline 98 % of control | [3] 108 % of control | dose: 200.0 mg/kg/injection, schedule: Q04DX002 (ip), vehicle: saline 105 % of control | dose: 400.0 mg/kg/injection, schedule: Q01DX009 (ip), vehicle: saline 96 % of control | dose: 400.0 mg/kg/injection, schedule: Q04DX002 (ip), vehicle: saline 94 % of control

CC(=O)SCCCON1C(=O)c2ccccc2C1=O
inactive: dose: 50.0 mg/kg/injection, schedule: Q01DX001 (ip), vehicle: saline 100 % of control | dose: 100.0 mg/kg/injection, schedule: Q01DX001 (ip), vehicle: saline 96 % of control | dose: 200.0 mg/kg/injection, schedule: Q01DX001 (ip), vehicle: saline 102 % of control | dose: 400.0 mg/kg/injection, schedule: Q01DX001 (ip), vehicle: saline 102 % of control

O=C(O)/C=C\C(=O)NCC1CCC(CNC(=O)/C=C\C(=O)O)CC1 (configuration not stated)
inactive: dose: 100.0 mg/kg/injection, schedule: Q04DX003 (ip), vehicle: Klucel (hydroxypropylcellulose) (HPC) 98 % of control | dose: 200.0 mg/kg/injection, schedule: Q04DX003 (ip), vehicle: Klucel (hydroxypropylcellulose) (HPC) 100 % of control | dose: 400.0 mg/kg/injection, schedule: Q04DX003 (ip), vehicle: Klucel (hydroxypropylcellulose) (HPC) 102 % of control

CCCCC(=O)N1CCCCCC1
inactive: [4] 105 % of control | [5] 87 % of control

CCCCOP(=O)(NNP(=O)(OCCCC)OCCCC)OCCCC
inactive: [4] 108 % of control | [5] 116 % of control | dose: 400.0 mg/kg/injection, schedule: Q04DX002 (ip), vehicle: saline with Tween-80 105 % of control
